Legend:
S. aureus Newman [1] = assay: fitness (endpoint OD595 vs no drug) (fraction); higher = more growth; conditions: main component drawn
Outline: (§1)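 Fitness is computed from the optical density at which cultures reach stationary phase, divided by the robust mean of no-drug control wells. Any value above 1 is set to 1. Cultures started at OD595 0.01 in 384-well plates with TSB, LB Lennox or CY at 37 °C, and OD595 was read every 30 min for 14 h against a first-reading background.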

B. subtilis 168 [2] = assay: Bliss interaction score (quartile over a dose matrix) (fitness difference); higher = more antagonism (negative = synergy)
Outline: (§2)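 Fitness was defined as normalised growth: OD595 at the start of stationary phase divided by the plate's robust no-drug mean and capped at 1. Single-drug fitness was inferred from combination measurements. The Bliss score is observed fitness minus the product of the single-drug values, summarised by quartiles across technical, biological and donor/recipient replicates.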

S. aureus DSM 20231 = assay: as above
Outline: as §2

S. aureus Newman [3] = assay: as above
Outline: as §2

S. pneumoniae D39V [4] = assay: as above
Outline: as §2

B. subtilis 168 [5] = assay: fitness (endpoint OD595 vs no drug) (fraction); higher = more growth
Outline: as §1

S. pneumoniae D39V [6] = assay: as above
Outline: as §1
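Wherever Bliss interaction score (quartile over a dose matrix) is given: first quartile when negative (synergy) and third quartile when positive (antagonism).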
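Wherever fitness (endpoint OD595 vs no drug) is given: OD595 on entry to stationary phase over no-drug wells; at most 1.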

CC1=C(C(=O)O)N2C(=O)[C@@H](NC(=O)[C@H](N)c3ccccc3)[C@H]2SC1 [Cephalexin] + CCCCCCCCCC(=O)N[C@@H]1[C@H]([C@@H]([C@H](O[C@H]1OC2=C3C=C4C=C2OC5=C(C=C(C=C5)[C@H]([C@H]6C(=O)N[C@@H](C7=C(C(=CC(=C7)O)OC8[C@H]([C@H]([C@@H]([C@H](O8)CO)O)O)O)C9=C(C=CC(=C9)[C@H](C(=O)N6)NC(=O)[C@@H]4NC(=O)[C@@H]1C2=CC(=CC(=C2)OC2=C(C=CC(=C2)[C@H](C(=O)N[C@H](CC2=CC(=C(O3)C=C2)Cl)C(=O)N1)N)O)O)O)C(=O)O)O[C@H]1[C@@H]([C@H]([C@@H]([C@H](O1)CO)O)O)NC(=O)C)Cl)CO)O)O [Teicoplanin]
fitness, S. aureus Newman [1]
Conditions	first compound 0.25 µg/mL	first compound 0.5 µg/mL	first compound 1 µg/mL
partner 0.1562 µg/mL	≥ 1	≥ 1	≥ 1
partner 0.3125 µg/mL	≥ 1	≥ 1	≥ 1
partner 0.625 µg/mL	≥ 1	≥ 1	≥ 1

fitness, S. aureus Newman [1], one replicate
Conditions	first compound 0.5 µg/mL	first compound 1 µg/mL	first compound 2 µg/mL
partner 0.62 µg/mL	0.827	0.855	0.847
partner 1.24 µg/mL	0.77	0.796	0.739
partner 2.48 µg/mL	0.565	0.498	0.587

main component drawn
Conditions	Bliss interaction score
B. subtilis 168 [2]	0.0688
S. aureus DSM 20231	0.0334
S. aureus Newman [3]	0.0429
S. pneumoniae D39V [4]	0.0339

CC1=C(C(=O)O)N2C(=O)[C@@H](NC(=O)[C@H](N)c3ccccc3)[C@H]2SC1 [Cephalexin] + CCC[C@@H]1C[C@@H](C(=O)N[C@@H]([C@H]2O[C@H](SC)[C@H](O)[C@@H](O)[C@H]2O)[C@@H](C)O)N(C)C1 [Lincomycin]
Conditions	fitness
B. subtilis 168 [5], first compound 0.125 µg/mL, partner 0.1 µg/mL	0.901
B. subtilis 168 [5], first compound 0.125 µg/mL, partner 0.2 µg/mL	0.876
B. subtilis 168 [5], first compound 0.125 µg/mL, partner 0.4 µg/mL	0.852
B. subtilis 168 [5], first compound 0.25 µg/mL, partner 0.1 µg/mL	0.941
B. subtilis 168 [5], first compound 0.25 µg/mL, partner 0.2 µg/mL	0.937
B. subtilis 168 [5], first compound 0.25 µg/mL, partner 0.4 µg/mL	0.913
B. subtilis 168 [5], first compound 0.5 µg/mL, partner 0.1 µg/mL	0.939
B. subtilis 168 [5], first compound 0.5 µg/mL, partner 0.2 µg/mL	0.901
B. subtilis 168 [5], first compound 0.5 µg/mL, partner 0.4 µg/mL	0.852
S. pneumoniae D39V [6], first compound 1 µg/mL, partner 0.215 µg/mL	0.832
S. pneumoniae D39V [6], first compound 1 µg/mL, partner 0.43 µg/mL	0.716
S. pneumoniae D39V [6], first compound 1 µg/mL, partner 0.86 µg/mL	0.403
S. pneumoniae D39V [6], first compound 2 µg/mL, partner 0.43 µg/mL	0.373
S. pneumoniae D39V [6], first compound 2 µg/mL, partner 0.86 µg/mL	0.176
S. pneumoniae D39V [6], first compound 4 µg/mL, partner 0.215 µg/mL	0.0258
S. pneumoniae D39V [6], first compound 4 µg/mL, partner 0.43 µg/mL	0.0283
S. pneumoniae D39V [6], first compound 4 µg/mL, partner 0.86 µg/mL	0.0358

fitness, one replicate
Conditions	partner 0.1 µg/mL	partner 0.2 µg/mL	partner 0.4 µg/mL	partner 0.8 µg/mL
B. subtilis 168 [5], first compound 1 µg/mL	≥ 1	≥ 1	≥ 1	–
S. pneumoniae D39V [6], first compound 0.125 µg/mL	–	0.722	0.663	0.206
S. pneumoniae D39V [6], first compound 0.25 µg/mL	–	0.759	0.643	0.304
S. pneumoniae D39V [6], first compound 0.5 µg/mL	–	0.786	0.702	0.288

Conditions	Bliss interaction score
B. subtilis 168 [2]	-0.0209
S. aureus DSM 20231	0.101
S. aureus Newman [3]	0.0797
S. pneumoniae D39V [4]	0.159

CC1=C(C(=O)O)N2C(=O)[C@@H](NC(=O)[C@H](N)c3ccccc3)[C@H]2SC1 [Cephalexin] + CN(C)C(=O)C(CCN1CCC(O)(c2ccc(Cl)cc2)CC1)(c1ccccc1)c1ccccc1 [Loperamide]
Conditions	fitness
B. subtilis 168 [5], first compound 0.125 µg/mL, partner 25 µg/mL	0.819
B. subtilis 168 [5], first compound 0.125 µg/mL, partner 50 µg/mL	0.0465
B. subtilis 168 [5], first compound 0.125 µg/mL, partner 100 µg/mL	0.0315
B. subtilis 168 [5], first compound 0.25 µg/mL, partner 25 µg/mL	0.803
B. subtilis 168 [5], first compound 0.25 µg/mL, partner 50 µg/mL	0.039
B. subtilis 168 [5], first compound 0.25 µg/mL, partner 100 µg/mL	0.025
B. subtilis 168 [5], first compound 0.5 µg/mL, partner 25 µg/mL	0.712
B. subtilis 168 [5], first compound 0.5 µg/mL, partner 50 µg/mL	0.0372
B. subtilis 168 [5], first compound 0.5 µg/mL, partner 100 µg/mL	0.0277
S. pneumoniae D39V [6], first compound 2 µg/mL, partner 34.28 µg/mL	0.165
S. pneumoniae D39V [6], first compound 4 µg/mL, partner 17.14 µg/mL	0.0474
S. pneumoniae D39V [6], first compound 4 µg/mL, partner 34.28 µg/mL	0.0181

fitness, S. pneumoniae D39V [6], one replicate
Conditions	first compound 0.125 µg/mL	first compound 0.25 µg/mL	first compound 0.5 µg/mL	first compound 1 µg/mL	first compound 2 µg/mL	first compound 4 µg/mL
partner 20 µg/mL	≥ 1	≥ 1	≥ 1	–	–	–
partner 40 µg/mL	≥ 1	0.995	0.99	–	–	–
partner 68.57 µg/mL	–	–	–	0.53	0.15	0.0031
partner 80 µg/mL	0.753	0.784	0.612	–	–	–

Conditions	Bliss interaction score
B. subtilis 168 [2]	-0.0893
S. aureus DSM 20231	0.116
S. aureus Newman [3]	0.0814
S. pneumoniae D39V [4]	-0.129

— the supplement of paper PMC10627819
